Data reported in ChEMBL document CHEMBL5512597, “Triazole hybrid compounds: A new frontier in malaria treatment” (Eur J Med Chem, 2023).
Converted amounts (≈) assume the structure as drawn.

Key:
Plasmodium falciparum [1] = assay: Antimalarial activity against CQ-sensitive Plasmodium falciparum D6 assessed as parasite growth inhibition by LDH assay; assay type: functional, organism-based
Plasmodium falciparum [2] = assay: Antimalarial activity against CQ-resistant Plasmodium falciparum W2 assessed as parasite growth inhibition by LDH assay; assay type: functional, organism-based
Plasmodium falciparum [3] = assay: Antimalarial activity against CQ-sensitive Plasmodium falciparum 3D7 infected in human O+ erythrocytes assessed as parasite growth inhibition incubated for 48 hrs by SYBR Green I staining based analysis; assay type: functional, organism-based; conditions: 3D7, Erythrocyte
Plasmodium falciparum [4] = assay: Antimalarial activity against CQ-resistant Plasmodium falciparum K1 infected in human O+ erythrocytes assessed as parasite growth inhibition incubated for 48 hrs by SYBR Green I staining based analysis; assay type: functional, organism-based; conditions: K1, Erythrocyte
Plasmodium falciparum [5] = assay: Antimalarial activity against Plasmodium falciparum 3D7 assessed as inhibition of parasite proliferation; assay type: functional, organism-based
Plasmodium falciparum [6] = assay: Antiplasmodial activity against CQ-sensitive Plasmodium falciparum NF54; assay type: functional, organism-based
[7] = Cytotoxicity against African green monkey Vero cells; assay type: toxicity, cell-based; conditions: chlorocebus sabaeus
Plasmodium falciparum [8] = assay: Antiplasmodial activity against Plasmodium falciparum K1 at asexual stage assessed as parasite growth inhibition; assay type: functional, organism-based
Plasmodium falciparum [9] = assay: Antiplasmodial activity against CQ-sensitive Plasmodium falciparum NF54 at asexual stage assessed as parasite growth inhibition; assay type: functional, organism-based
Plasmodium falciparum [10] = assay: Antimalarial activity against Plasmodium falciparum 3D7 infected in erythrocytes assessed as parasite growth inhibition incubated for 42 hrs by [3H]-hypoxanthine incorporation assay; assay type: functional, organism-based; conditions: 3D7, Erythrocyte
Plasmodium falciparum [11] = assay: Antiplasmodial activity against CQ-susceptible Plasmodium falciparum 3D7 assessed as parasite growth inhibition incubated for 72 hrs by SYBR Green I staining based analysis; assay type: functional, organism-based; conditions: 3D7, 72 h
Plasmodium falciparum [12] = assay: Antiplasmodial activity against CQ-resistant Plasmodium falciparum W2 assessed as parasite growth inhibition incubated for 72 hrs by SYBR Green I staining based analysis; assay type: functional, organism-based; conditions: W2, 72 h
Plasmodium falciparum [13] = assay: Antimalarial activity against Plasmodium falciparum 3D7 assessed as inhibition of parasitemia incubated for 72 hrs by fluorescence based assay; assay type: functional, organism-based; conditions: 3D7, 72 h
[14] = Inhibition of Plasmodium falciparum SR21
Plasmodium falciparum [15] = assay: Antiplasmodial activity against Plasmodium falciparum 3D7 at asexual erythrocytic stage infected in human erythrocytes assessed as parasite growth inhibition incubated for 42 hrs by [3H]-hypoxanthine incorporation assay; assay type: functional, organism-based; conditions: 3D7, Erythrocyte
[16] = Cytotoxicity against African green monkey Vero cells after 72 hrs by MTT assay; assay type: toxicity, cell-based; conditions: chlorocebus sabaeus
Plasmodium falciparum [17] = assay: Antimalarial activity against Plasmodium falciparum W2 assessed as parasite growth inhibition; assay type: functional, organism-based
Plasmodium falciparum [18] = assay: Antimalarial activity against Plasmodium falciparum […] incubated for 48 hrs; assay type: functional, organism-based
Plasmodium falciparum [19] = assay: Antiplasmodial activity against CQ-sensitive Plasmodium falciparum F32 Tanzania assessed as parasite growth inhibition incubated for 48 hrs; assay type: functional, organism-based
Plasmodium falciparum [20] = assay: Antimalarial activity against Plasmodium falciparum 3D7 at asexual stage infected in erythrocytes assessed as parasite growth inhibition incubated for 72 hrs by MSF assay; assay type: functional, organism-based; conditions: 3D7, Erythrocyte

**Q.** For `O=C1c2nnn(Cc3cccc([N+](=O)[O-])c3)c2C(=O)c2nnn(Cc3cccc([N+](=O)[O-])c3)c21`, which IC50 (Plasmodium falciparum [1]) is on record?
**A.** 1.91 µM

**Q.** What about the IC50 (Plasmodium falciparum [2]) of the same molecule?
**A.** 2.89 µM

**Q.** For `Cc1cccc(Cn2nnc3c2C(=O)c2nnn(Cc4cccc(C)c4)c2C3=O)c1`, which IC50 (Plasmodium falciparum [1]) is on record?
**A.** 8.37 µM

**Q.** And the IC50 (Plasmodium falciparum [2])?
**A.** 6.61 µM

**Q.** Which IC50 (Plasmodium falciparum [3]) does the source give for `Clc1ccc(-n2cc(-c3cncc4ccccc34)nn2)cc1` here?
**A.** 36.9 µM

**Q.** What about the IC50 (Plasmodium falciparum [4]) of the same molecule?
**A.** 4.55 µM

**Q.** Which results are given for `O=C1c2nnn(Cc3cccc(F)c3)c2C(=O)c2nnn(Cc3cccc(F)c3)c21`?
**A.** IC50 (Plasmodium falciparum [1]): 0.679 µM; IC50 (Plasmodium falciparum [2]): 0.583 µM

**Q.** Which IC50 (Plasmodium falciparum [5]) does the source give for `CCCCn1cc(CCNC(=O)[C@H](O)C(C)(C)CO)nn1` here?
**A.** 3.3 µM

**Q.** With `CC1(C)[C@@H](O)CC[C@]2(C)[C@H]3C(=O)C=C4[C@@H]5C[C@@](C)(C(=O)OCc6cn(-c7ccc(Cl)cc7)nn6)CC[C@]5(C)CC[C@@]4(C)[C@]3(C)CC[C@@H]12` as the molecule, how does the IC50 (Plasmodium falciparum [6]) read?
**A.** 0.48 µM

**Q.** What about the CC50 [7] of the same molecule?
**A.** 391 µM

**Q.** For `COC(=O)C1=C(Cn2cc(CNc3ccnc4cc(Cl)ccc34)nn2)N(C)C(=O)NC1c1ccc(OC)cc1` (configuration not stated), which IC50 (Plasmodium falciparum [8]) is on record?
**A.** 0.422 µM

**Q.** What about the IC50 (Plasmodium falciparum [9]) of the same molecule?
**A.** 0.18 µM

**Q.** With `COc1ccc2cc3[n+](cc2c1OCc1cn(-c2ccc(S(=O)(=O)N4CCN(C)CC4)cc2)nn1)CCc1cc2c(cc1-3)OCO2.[Cl-]` as the molecule, how does the IC50 (Plasmodium falciparum [10]) read?
**A.** 0.8 µg/mL

**Q.** For `OB1OCc2cc(OCc3cn(-c4ccnc5ccc(Cl)cc45)nn3)ccc21`, which IC50 (Plasmodium falciparum [11]) is on record?
**A.** 4.87 µM

**Q.** What about the IC50 (Plasmodium falciparum [12]) of the same molecule?
**A.** 5.22 µM

**Q.** With `CCCCCCCCCC(=O)OCc1cn(-c2ccc(Cl)cc2)nn1` as the molecule, how does the IC50 (Plasmodium falciparum [13]) read?
**A.** 2.8 µM

**Q.** And the IC50 [14]?
**A.** 1.55 µM

**Q.** For `COc1ccc2cc3[n+](cc2c1OCc1cn(-c2ccc(S(=O)(=O)N4CCOCC4)cc2)nn1)CCc1cc2c(cc1-3)OCO2.[Cl-]`, which IC50 (Plasmodium falciparum [10]) is on record?
**A.** 0.5 µg/mL

**Q.** With `NS(=O)(=O)c1ccc(-n2cc(COc3ccccc3)nn2)cc1` as the molecule, how does the IC50 (Plasmodium falciparum [15]) read?
**A.** 15 µg/mL (≈ 45.4 µM)

**Q.** With `CC(=O)c1ccc(-n2cc(COC(=O)[C@@]3(C)CC[C@]4(C)CC[C@]5(C)C(=CC(=O)[C@@H]6[C@@]7(C)CC[C@H](O)C(C)(C)[C@@H]7CC[C@]65C)[C@@H]4C3)nn2)cc1` as the molecule, how does the IC50 (Plasmodium falciparum [6]) read?
**A.** > 10 µM

**Q.** And the CC50 [7]?
**A.** 226 µM

**Q.** For `CCCCCn1nncc1CNC(=O)[C@H](O)C(C)(C)CO`, which IC50 (Plasmodium falciparum [5]) is on record?
**A.** 36 µM

**Q.** With `COC(=O)C1=C(Cn2cc(CNc3ccnc4cc(Cl)ccc34)nn2)NC(=O)NC1c1ccc(F)cc1` (configuration not stated) as the molecule, how does the IC50 (Plasmodium falciparum [8]) read?
**A.** 0.551 µM

**Q.** And the IC50 (Plasmodium falciparum [9])?
**A.** 0.217 µM

**Q.** For `O=C(Cn1cc(COc2ccc(Br)cc2)nn1)NCCCNc1ccnc2cc(Cl)ccc12`, which CC50 at 72 h [16] is on record?
**A.** 27.1 µM

**Q.** With `CC(C)(C)c1ccc(Cn2cc(-c3cccc4ccccc34)nn2)cc1` as the molecule, how does the IC50 (Plasmodium falciparum [3]) read?
**A.** 36.9 µM

**Q.** And the IC50 (Plasmodium falciparum [4])?
**A.** 42.2 µM

**Q.** With `O/N=C/c1cn(-c2ccc(Cl)cc2)nn1` as the molecule, how does the IC50 (Plasmodium falciparum [13]) read?
**A.** 6.67 µM

**Q.** And the IC50 [14]?
**A.** 0.89 µM

**Q.** Which IC50 (Plasmodium falciparum [13]) does the source give for `Clc1ccc(N/N=C/c2cnn(-c3ccccc3)n2)cc1` here?
**A.** 9.29 µM

**Q.** For `C=C[C@H]1CN2CC[C@H]1C[C@H]2[C@H](c1ccnc2ccccc12)n1cc(CCC)nn1`, which IC50 (Plasmodium falciparum [17]) is on record?
**A.** 1.99 µM

**Q.** With `Cc1nn(-c2ccccc2)c(-n2cncn2)c1-c1cc(-c2ccc(O)cc2)nc2nc3ccccc3n12` as the molecule, how does the IC50 (Plasmodium falciparum [18]) read?
**A.** 0.054 µg/mL (≈ 0.111 µM)

**Q.** With `COC(=O)C1=C(Cn2cc(CNc3ccnc4cc(Cl)ccc34)nn2)N(C)C(=O)NC1c1ccc(F)cc1` (configuration not stated) as the molecule, how does the IC50 (Plasmodium falciparum [8]) read?
**A.** 0.498 µM

**Q.** What about the IC50 (Plasmodium falciparum [9]) of the same molecule?
**A.** 0.138 µM

**Q.** For `CCCCn1cc(COC2=CC(=O)c3ccccc3C2=O)nn1`, which IC50 (Plasmodium falciparum [19]) is on record?
**A.** 11.2 µM

**Q.** For `Cc1nn(-c2ccccc2)c(-n2cncn2)c1-c1cc(-c2ccccc2)nc2nc3ccccc3n12`, which IC50 (Plasmodium falciparum [18]) is on record?
**A.** 1.45 µg/mL (≈ 3.09 µM)

**Q.** Which IC50 (Plasmodium falciparum [19]) does the source give for `O=C1C=C(OCc2cn(-c3ccc(S)cc3)nn2)C(=O)c2ccccc21` here?
**A.** > 20 µM

**Q.** Which IC50 (Plasmodium falciparum [6]) does the source give for `CC(=O)c1cccc(-n2cc(COC(=O)[C@@]3(C)CC[C@]4(C)CC[C@]5(C)C(=CC(=O)[C@@H]6[C@@]7(C)CC[C@H](O)C(C)(C)[C@@H]7CC[C@]65C)[C@@H]4C3)nn2)c1` here?
**A.** 3.5 µM

**Q.** What about the CC50 [7] of the same molecule?
**A.** 213 µM

**Q.** For `O=C(Cn1cc(COc2ccc(Br)cc2)nn1)NCCNc1ccnc2cc(Cl)ccc12`, which IC50 (Plasmodium falciparum [20]) is on record?
**A.** 0.04 µM

**Q.** And the CC50 at 72 h [16]?
**A.** 28.9 µM

**Q.** With `COc1ccc2cc3[n+](cc2c1OCc1cn(-c2ccc(S(=O)(=O)Nc4ccc(Cl)cc4)cc2)nn1)CCc1cc2c(cc1-3)OCO2.[Cl-]` as the molecule, how does the IC50 (Plasmodium falciparum [10]) read?
**A.** 0.1 µg/mL

**Q.** Which IC50 (Plasmodium falciparum [10]) does the source give for `COc1ccc2cc3[n+](cc2c1OCc1cn(-c2ccc(S(=O)(=O)Nc4ccc([N+](=O)[O-])cc4)cc2)nn1)CCc1cc2c(cc1-3)OCO2.Cl` here?
**A.** 20 µg/mL

**Q.** Which IC50 (Plasmodium falciparum [13]) does the source give for `CCOCc1cn(-c2ccc(Cl)cc2)nn1` here?
**A.** 11.7 µM

**Q.** For `O=C(OCc1cnn(-c2ccccc2)n1)c1ccccc1`, which IC50 (Plasmodium falciparum [13]) is on record?
**A.** 27.5 µM

**Q.** With `COC(=O)C1=C(Cn2cc(CNc3ccnc4cc(Cl)ccc34)nn2)NC(=O)NC1c1ccc(OC)cc1` (configuration not stated) as the molecule, how does the IC50 (Plasmodium falciparum [8]) read?
**A.** 0.567 µM

**Q.** What about the IC50 (Plasmodium falciparum [9]) of the same molecule?
**A.** 0.245 µM

**Q.** What does the source list for `COC(=O)c1ccccc1-c1ccc(Cn2cc(-c3cncc4ccccc34)nn2)cc1`?
**A.** IC50 (Plasmodium falciparum [3]): 35.8 µM; IC50 (Plasmodium falciparum [4]): 52 µM

**Q.** Which IC50 (Plasmodium falciparum [6]) does the source give for `CC1(C)[C@@H](O)CC[C@]2(C)[C@H]3C(=O)C=C4[C@@H]5C[C@@](C)(C(=O)OCc6cn(-c7ccc([N+](=O)[O-])cc7)nn6)CC[C@]5(C)CC[C@@]4(C)[C@]3(C)CC[C@@H]12` here?
**A.** 2.71 µM

**Q.** And the CC50 [7]?
**A.** 175 µM
